Experiments:
BT-474 Tam1 [1] = experiment: drug sensitivity score (DSS) (DSS (dimensionless)); higher = more sensitive; extreme values may be limits of the assay; details: 4-OH-tamoxifen in medium 1 µM; 72 h
Description: (§1)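 FIMM FO2B library drugs were tested at 5 concentrations (10,000-fold range) for 72 h, with CellTiter-Glo viability normalised to DMSO and benzethonium chloride controls. The Drug Sensitivity Score (DSS) is computed from the fitted logistic dose-response curve (area-based; 0 = inactive). Resistant lines and the 'in 1µM tamoxifen' arms were tested in 1 µM 4-OH-tamoxifen.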

ZR-75-1 Tam1 [2] = experiment: as above; details: 4-OH-tamoxifen in medium 1 µM; 72 h
Description: as §1

MCF-7 Tam1 [3] = experiment: as above; details: 4-OH-tamoxifen in medium 1 µM; 72 h
Description: as §1

T-47D Tam2 [4] = experiment: as above; details: 4-OH-tamoxifen in medium 1 µM; 72 h
Description: as §1

T-47D Tam1 [5] = experiment: as above; details: 4-OH-tamoxifen in medium 1 µM; 72 h
Description: as §1

BT-474 [6] = experiment: as above; details: 72 h
Description: as §1

BT-474 Tam2 [7] = experiment: as above; details: 4-OH-tamoxifen in medium 1 µM; 72 h
Description: as §1

ZR-75-1 [8] = experiment: as above; details: 72 h
Description: as §1

T-47D [9] = experiment: as above; details: 72 h
Description: as §1

MCF-7 [10] = experiment: as above; details: 72 h
Description: as §1

ZR-75-1 Tam2 [11] = experiment: as above; details: 4-OH-tamoxifen in medium 1 µM; 72 h
Description: as §1

BT-474 [12] = experiment: relative IC50 (midpoint of fitted logistic curve, plateau may be below 50% inhibition; CellTiter-Glo viability); higher = less potent; details: 72 h
Description: (§2)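 FIMM FO2B library drugs were plated at 5 concentrations spanning a 10,000-fold range in 384-well plates. Cells were incubated for 72 h at 37 °C and viability was read by CellTiter-Glo, normalised to DMSO (0% inhibition) and 100 µM benzethonium chloride (100% inhibition). IC50 values come from logistic dose-response fits (Breeze pipeline). Tamoxifen-resistant lines and the 'in 1µM tamoxifen' parental arms were tested in medium with 1 µM 4-OH-tamoxifen.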

BT-474 Tam2 [13] = experiment: as above; details: 4-OH-tamoxifen in medium 1 µM; 72 h
Description: as §2

ZR-75-1 [14] = experiment: as above; details: 72 h
Description: as §2

T-47D [15] = experiment: as above; details: 72 h
Description: as §2

MCF-7 [16] = experiment: as above; details: 72 h
Description: as §2

BT-474 Tam1 [17] = experiment: as above; details: 4-OH-tamoxifen in medium 1 µM; 72 h
Description: as §2

ZR-75-1 Tam1 [18] = experiment: as above; details: 4-OH-tamoxifen in medium 1 µM; 72 h
Description: as §2

BT-474 Tam1 [19] = experiment: viability inhibition at highest dose (% inhibition); higher = more growth inhibition; details: 4-OH-tamoxifen in medium 1 µM; 72 h
Method in brief: (§3)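 Breast cancer cell lines and their resistant derivatives were seeded into 384-well plates containing library drugs at five concentrations across a 10 000-fold range, with resistant lines kept in medium with 1 μM of the selecting drug. After 72 h at 37 °C, CellTiter-Glo viability was read on a PHERAstar and normalised to vehicle-only and positive controls. Logistic dose–response fits in the Breeze pipeline gave drug sensitivity score, relative IC50 (curve midpoint) and top-dose inhibition.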

ZR-75-1 Tam1 [20] = experiment: as above; details: 4-OH-tamoxifen in medium 1 µM; 72 h
Method in brief: as §3

MCF-7 Tam1 [21] = experiment: as above; details: 4-OH-tamoxifen in medium 1 µM; 72 h
Method in brief: as §3

T-47D Tam2 [22] = experiment: as above; details: 4-OH-tamoxifen in medium 1 µM; 72 h
Method in brief: as §3

T-47D Tam1 [23] = experiment: as above; details: 4-OH-tamoxifen in medium 1 µM; 72 h
Method in brief: as §3

BT-474 [24] = experiment: as above; details: 72 h
Method in brief: as §3

BT-474 Tam2 [25] = experiment: as above; details: 4-OH-tamoxifen in medium 1 µM; 72 h
Method in brief: as §3

ZR-75-1 [26] = experiment: as above; details: 72 h
Method in brief: as §3

T-47D [27] = experiment: as above; details: 72 h
Method in brief: as §3

MCF-7 [28] = experiment: as above; details: 72 h
Method in brief: as §3

ZR-75-1 Tam2 [29] = experiment: as above; details: 4-OH-tamoxifen in medium 1 µM; 72 h
Method in brief: as §3

| Compound | relative IC50 (BT-474 [12]; 4-OH-tamoxifen in medium 1 µM) [µM] | relative IC50 (BT-474 Tam2 [13]) [µM] | relative IC50 (BT-474 Tam1 [17]) [µM] | relative IC50 (BT-474 [12]; 4-OH-tamoxifen in medium 0 µM) [µM] | drug sensitivity score (BT-474 Tam1 [1]) | drug sensitivity score (ZR-75-1 Tam1 [2]) | drug sensitivity score (MCF-7 Tam1 [3]) | drug sensitivity score (T-47D Tam2 [4]) | drug sensitivity score (T-47D Tam1 [5]) | drug sensitivity score (BT-474 [6]; 4-OH-tamoxifen in medium 0 µM) | drug sensitivity score (BT-474 [6]; 4-OH-tamoxifen in medium 1 µM) | drug sensitivity score (BT-474 Tam2 [7]) | drug sensitivity score (ZR-75-1 [8]; 4-OH-tamoxifen in medium 0 µM) | drug sensitivity score (ZR-75-1 [8]; 4-OH-tamoxifen in medium 1 µM) | drug sensitivity score (T-47D [9]; 4-OH-tamoxifen in medium 0 µM) | drug sensitivity score (T-47D [9]; 4-OH-tamoxifen in medium 1 µM) | drug sensitivity score (MCF-7 [10]; 4-OH-tamoxifen in medium 0 µM) | drug sensitivity score (MCF-7 [10]; 4-OH-tamoxifen in medium 1 µM) | drug sensitivity score (ZR-75-1 Tam2 [11]) | relative IC50 (ZR-75-1 [14]; 4-OH-tamoxifen in medium 0 µM) [µM] | also measured |
| --- | --- | --- | --- | --- | --- | --- | --- | --- | --- | --- | --- | --- | --- | --- | --- | --- | --- | --- | --- | --- | --- |
| CNC(=O)c1ccccc1Sc1ccc2c(/C=C/c3ccccn3)n[nH]c2c1 [Axitinib] | 1.65 |  | 3.25 |  | 2.01 | 0 | 1.84 | 0.968 | 1.41 | 0.518 | 3.56 | 1.5 | 0 | 0.656 | 2.18 | 0.979 | 1.43 | 2.88 | 1.49 | > 10 | relative IC50 (ZR-75-1 Tam1 [18]): > 10 µM; relative IC50 (T-47D [15]; 4-OH-tamoxifen in medium 0 µM): 2.77 µM; relative IC50 (MCF-7 [16]; 4-OH-tamoxifen in medium 0 µM): 3.32 µM; relative IC50 (MCF-7 [16]; 4-OH-tamoxifen in medium 1 µM): 1.48 µM |
| S=c1[nH]cnc2nc[nH]c12 [Mercaptopurine] |  | > 10 | > 10 | > 10 | 0 | 3.2 | 0.313 | 0 | 0.0158 | 0 | 1.43 | 0 | 3.86 | 0 | 0 | 0 | 0.509 | 2.88 | 1.17 | 1.17 | relative IC50 (ZR-75-1 Tam1 [18]): 1.27 µM; relative IC50 (T-47D [15]; 4-OH-tamoxifen in medium 0 µM): > 10 µM; relative IC50 (T-47D [15]; 4-OH-tamoxifen in medium 1 µM): > 10 µM |
| COc1cc2nccc(Oc3ccc(NC(=O)Nc4cc(C)on4)c(Cl)c3)c2cc1OC [Tivozanib  (AV-951)] | 3.67 | 3.91 | 3.12 | 3.57 | 4.02 | 0 | 0.0468 | 0.444 | 0.968 | 1.25 | 3.61 | 1.74 | 0.0461 | 0 | 0.499 | 0.378 | 0.0979 | 0.0672 | 0 |  | relative IC50 (ZR-75-1 Tam1 [18]): > 10 µM; relative IC50 (ZR-75-1 [14]; 4-OH-tamoxifen in medium 1 µM): > 10 µM |
| C[C@]1(c2nc3c(C(N)=O)cccc3[nH]2)CCCN1 [Veliparib  (ABT-888)] (drug 10000 nM) |  |  |  |  |  |  |  |  |  |  |  |  |  |  |  |  |  |  |  |  | viability inhibition at highest dose (BT-474 Tam1 [19]): 6.83; viability inhibition at highest dose (ZR-75-1 Tam1 [20]): 2.16; viability inhibition at highest dose (MCF-7 Tam1 [21]): -2.94; viability inhibition at highest dose (T-47D Tam2 [22]): 6.94; viability inhibition at highest dose (T-47D Tam1 [23]): 2.73; viability inhibition at highest dose (BT-474 [24]; 4-OH-tamoxifen in medium 0 µM): -7.48; viability inhibition at highest dose (BT-474 [24]; 4-OH-tamoxifen in medium 1 µM): 9.81; viability inhibition at highest dose (BT-474 Tam2 [25]): -7.23; viability inhibition at highest dose (ZR-75-1 [26]; 4-OH-tamoxifen in medium 0 µM): -8.51; viability inhibition at highest dose (ZR-75-1 [26]; 4-OH-tamoxifen in medium 1 µM): 2.27; viability inhibition at highest dose (T-47D [27]; 4-OH-tamoxifen in medium 0 µM): -14.2; viability inhibition at highest dose (T-47D [27]; 4-OH-tamoxifen in medium 1 µM): -15.3; viability inhibition at highest dose (MCF-7 [28]; 4-OH-tamoxifen in medium 0 µM): 8.41; viability inhibition at highest dose (MCF-7 [28]; 4-OH-tamoxifen in medium 1 µM): -2.66; viability inhibition at highest dose (ZR-75-1 Tam2 [29]): 6.18 |

The next lines start with results.

| relative IC50 (BT-474 [12]; 4-OH-tamoxifen in medium 1 µM) [µM] | relative IC50 (BT-474 Tam2 [13]) [µM] | relative IC50 (BT-474 Tam1 [17]) [µM] | relative IC50 (BT-474 [12]; 4-OH-tamoxifen in medium 0 µM) [µM] | Compound | drug sensitivity score (BT-474 Tam1 [1]) | drug sensitivity score (ZR-75-1 Tam1 [2]) | drug sensitivity score (MCF-7 Tam1 [3]) | drug sensitivity score (T-47D Tam2 [4]) | drug sensitivity score (T-47D Tam1 [5]) | drug sensitivity score (BT-474 [6]; 4-OH-tamoxifen in medium 0 µM) | drug sensitivity score (BT-474 [6]; 4-OH-tamoxifen in medium 1 µM) | drug sensitivity score (BT-474 Tam2 [7]) | drug sensitivity score (ZR-75-1 [8]; 4-OH-tamoxifen in medium 0 µM) | drug sensitivity score (ZR-75-1 [8]; 4-OH-tamoxifen in medium 1 µM) | drug sensitivity score (T-47D [9]; 4-OH-tamoxifen in medium 0 µM) | drug sensitivity score (T-47D [9]; 4-OH-tamoxifen in medium 1 µM) | drug sensitivity score (MCF-7 [10]; 4-OH-tamoxifen in medium 0 µM) | drug sensitivity score (MCF-7 [10]; 4-OH-tamoxifen in medium 1 µM) | drug sensitivity score (ZR-75-1 Tam2 [11]) | relative IC50 (ZR-75-1 [14]; 4-OH-tamoxifen in medium 0 µM) [µM] | also measured |
| --- | --- | --- | --- | --- | --- | --- | --- | --- | --- | --- | --- | --- | --- | --- | --- | --- | --- | --- | --- | --- | --- |
| > 10 | > 10 |  |  | CC(=O)c1c(C)c2cnc(Nc3ccc(N4CCNCC4)cn3)nc2n(C2CCCC2)c1=O | 0 | 1.11 | 0.967 | 1.34 | 2.49 | 0 | 0 | 0 | 0 | 0.745 | 2.46 | 0 | 3.32 | 3.28 | 1.63 | > 10 | relative IC50 (T-47D [15]; 4-OH-tamoxifen in medium 1 µM): > 10 µM; relative IC50 (MCF-7 [16]; 4-OH-tamoxifen in medium 0 µM): 1.16 µM |
| 0.404 |  | 0.314 | > 1 | COc1cc2c(Oc3ccc(NC(=O)C4(C(=O)Nc5ccc(F)cc5)CC4)cc3F)ccnc2cc1OCCCN1CCOCC1 [Foretinib (Foretinib)] | 1.42 | 0 | 1.72 | 1.36 | 0.595 | 0 | 1.73 | 0.0003 | 0 | 0 | 0.41 | 0.227 | 0.867 | 0.0297 | 0.585 | > 1 |  |
| 3.13 | 1.41 | 2.79 | > 10 | C=CC[C@@H]1/C=C(\C)C[C@H](C)C[C@H](OC)[C@H]2O[C@@](O)(C(=O)C(=O)N3CCCC[C@H]3C(=O)O[C@H](/C(C)=C/[C@@H]3CC[C@@H](O)[C@H](OC)C3)[C@H](C)[C@@H](O)CC1=O)[C@H](C)C[C@@H]2OC [Tacrolimus (FK 506)] | 2.73 | 0.336 | 1.18 | 0.788 | 2.72 | 0 | 1.97 | 2.96 | 0 | 0.622 | 0 | 0 | 0.766 | 3.51 | 0.01 | > 10 | relative IC50 (T-47D [15]; 4-OH-tamoxifen in medium 0 µM): > 10 µM; relative IC50 (T-47D [15]; 4-OH-tamoxifen in medium 1 µM): > 10 µM; relative IC50 (MCF-7 [16]; 4-OH-tamoxifen in medium 1 µM): 1.23 µM |

Source: the supplement of paper PMC4932681
